Experiments:
[1] = system: α-synuclein phosphorylated at serine 129; assay: Immunohistochemistry of Ser129-phosphorylated alpha-synuclein in exposed mice; assay type: in vivo, mouse; settings: 20 mg/kg/day oral 7 days, 30 days after end of exposure
Method: (§1) Swiss mice were divided into two groups of five animals (experimental and control). The experiments were performed independently two times. The mice of the experimental group were exposed to furosemide pyridinium for 7 days at a daily dose of 20 mg/kg. The furosemide pyridinium was administered orally in the drinking water. The mice were sacrificed 30 days after the end of the furosemide pyridinium treatment.
For this, the mice were anesthetized with pentobarbital (50 mg/Kg), then an intracardiac infusion of NaCl (0.9%) was administered, followed by fixation by an infusion of 4% paraformaldehyde in 0.1M phosphate buffer, pH 7.2. The brain was removed, placed in NaCl (0.9%) at 4° C., and frozen in Tissue Tek immersed in a cold isopentane bath. Coronal sections of eight microns were obtained using a cryostat and were processed for immunohistochemistry (labeling the tyrosine hydroxylase and the Ser129-phosphorylated alpha-synuclein).

[2] = system: mitochondria isolated from rat striatum; assay: Respiratory control (oxygen consumption) of isolated striatum mitochondria; assay type: biochemical
Method: (§2) The animal was then decapitated in order to collect from the brain either the cortex or the striatum, which were quickly placed in a Potter Elvejhem® containing 6 ml of extraction buffer at 4° C. (250 mM sucrose, 40 mM KCl, 2 mM EGTA, lmg/ml BSA, 20 mM Tris, pH=7.2). This mixture was homogenized to break open the cells and release the mitochondria and then centrifuged at 2000 g for 8 minutes to remove the larger membrane debris and the nuclei from the pellet. The supernatant was then recovered and centrifuged at 13,000 g for 11 minutes. The supernatant was discarded while the pellet containing a mitochondria-rich fraction was resuspended in 500 μl of respiration buffer at 4° C. (300 mM D-mannitol, 10 mM KCl, 10 mM KH2PO4, 5 mM MgCl2, pH=7.2). […]
Added to the polarography chamber (Hansatech) were 30 μl of mitochondria solution (0.2 mg), 460 μL of respiration buffer, 5 μl of test compound solution (meaning MPP+ or furosemide pyridinium) (or its solubilizing solvent). […] The effect of the compound on respiratory control was evaluated (ratio of stage 3 to 4), which corresponds to the coupling of the respiratory chain, or in other words the ATP synthesis at complex V and the oxygen consumption due to complexes I to IV. The results are expressed as percentages of the value measured for mitochondria not treated with the test compound (but treated with the solubilizing solvent).

rats = assay: Lethality of 7-day oral administration in rats; assay type: in vivo, rat; settings: daily dose of 20 mg/kg for seven days
Method: A platform for electrophysiological and behavioral monitoring of the rats was used. For this, a subcutaneous implant (Data Science) was placed in the rats which allowed the EEG to be recorded by telemetry, leaving the animal completely free to move about. The cage was equipped with a video camera (10 frames per second) and an infrared light to allow recordation of the animal's activity. The EEG and video sequences were recorded in sequences of 10 seconds, and a set of variables was calculated for each sequence. The use of dedicated software allowed integration of these variables over the entire recording to detect changes in the animal's activity, EEG, and circadian rhythms. Each animal served as its own control because it was recorded for 5 days prior to furosemide pyridinium administration. The solution of furosemide pyridinium (20 mg) was dissolved in dimethylsulfoxide (DMSO, 200 μl) and then diluted with water (50 ml). The solution was replaced every day and administered for 7 days in the drinking water at a dose of 20 mg/kg. The rats were then sacrificed 5 weeks after the last dose. The rats were anesthetized with pentobarbital and infused intracardially with saline ([…]), then fixed with 4% paraformaldehyde. After the infusion, the brain was removed and placed in NaCl (0.9%) at 4° C. The brain was frozen in Tissue Tek immersed in a cold isopentane bath. […]

[3] = system: respiratory chain complexes II-V of rat cerebral cortex mitochondria; assay: Respiratory control after induction of complex II by succinate and inhibition of complex I by rotenone; assay type: biochemical; settings: 1 mM, succinate
Method: as §2
Added to the polarography chamber (Hansatech) were 30 μl of mitochondria solution (0.2 mg), 460 μL of respiration buffer, 5 μl of test compound solution (meaning MPP+ or furosemide pyridinium) (or its solubilizing solvent). […] The effect of the compound on respiratory control was evaluated (ratio of stage 3 to 4), which corresponds to the coupling of the respiratory chain, or in other words the ATP synthesis at complex V and the oxygen consumption due to complexes I to IV. The results are expressed as percentages of the value measured for mitochondria not treated with the test compound (but treated with the solubilizing solvent). […]

[4] = system: mitochondrial respiratory chain; assay: Respiratory chain activity of mitochondria from striata of exposed mice; assay type: in vivo, mouse; settings: 20 mg/kg/day oral 7 days, 30 days after end of exposure
Method: Added to the polarography chamber (Hansatech) were 30 μl of mitochondria solution (0.2 mg), 460 μL of respiration buffer, 5 μl of test compound solution (meaning MPP+ or furosemide pyridinium) (or its solubilizing solvent). Then 5 μl of a 10/10 mM mixture of malate-pyruvate substrates were added, which allowed the respiratory chain to function (stage 2) starting from complex I. After about 40 seconds, 5 μl of 200 μM ADP were added, resulting in an increase in oxygen consumption as the ADP activated complex V (stage 3). Once all the ADP was consumed, the oxygen consumption returned to an initial stage (stage 4) that is equivalent to stage 2. The effect of the compound on respiratory control was evaluated (ratio of stage 3 to 4), which corresponds to the coupling of the respiratory chain, or in other words the ATP synthesis at complex V and the oxygen consumption due to complexes I to IV. The results are expressed as percentages of the value measured for mitochondria not treated with the test compound (but treated with the solubilizing solvent).
as §1, with “The mice were sacrificed 30 days after the end of the furosemide pyridinium treatment.” left out

caspase-3 = assay: Caspase-3 activity (Ac-DEVD-AFC cleavage) in SH-SY5Y cells; assay type: cell-based, human; settings: 1 mM, 96 h
Method: Measurement of the activities of the various caspases is based on the ability of the caspases to cleave specific fluorescent substrates: Ac-DEVD-AFC for caspase-3, Ac-IETD-AFC for caspase-8, or Ac-LEHD-AFC for caspase-9. SH-SY5Y neuronal cells were incubated in 48-well plates with either furosemide pyridinium (1 mM) for 96 h or with MPP+ (1 mM) for 6 h, then 24 h of incubation with no MPP+. After incubation, the cells were trypsinized, then rinsed with PBS and counted, then harvested in 100 μl of buffer containing 30 mM HEPES, 0.3 mM EDTA, 100 mM NaCl, 0.15% Triton X-100, and 10 mM DTT. The cell extract was then incubated for 1 hour at 37° C. with the specific substrate (100 μM) in a 96-well plate. Fluorescence was measured at λex400 nm and λem505 nm in a fluorescence detection plate reader (TECAN Infinite M1000) (Yue et al., supra). The results were expressed as percentages relative to the measured activity of cells cultured under the same conditions and not subjected to any treatment.

mice = assay: Lethality of 7-day oral administration in mice; assay type: in vivo, mouse; settings: daily dose of 20 mg/kg for seven days
Method: as §1

## NS(=O)(=O)c1cc(C(=O)[O-])c(-[n+]2cccc(O)c2)cc1Cl [furosemide pyridinium, 4-chloro-2-(3-hydroxypyridinium-1-yl)-5-sulfamoylbenzoate]
[1]; cortex
  α-synuclein phosphorylated at serine 129 in the cortexes: no increase
[1]; striatum
  α-synuclein phosphorylated at serine 129 in the striata: sharp increase
[2]; comparison striatum vs cortex
  effect on striatal mitochondria versus cortex mitochondria: greater on striatal mitochondria
[2]; dose-response
  oxygen consumption of striatum mitochondria: decrease in oxygen consumption
rats
  lethality: not lethal
[3]
  respiratory control of cortex mitochondria after induction by complex II: not modified
[4]
  decrease in respiratory control of striatal mitochondria vs control animals: 28%
caspase-3
  activity of caspase-3 compared to untreated cells: 179%
mice
  lethality: not lethal

Source: patent US9744250B2, “Chemical model of a neurodegenerative disease, method for preparation and uses of same” (priority 2012, dated 2017)
